According to patent US20190241535A1, “3-SUBSTITUTED CARBONYL-NAPHTHO[2,3-B]FURANE DERIVATIVE OR PHARMACEUTICALLY ACCEPTABLE SALT THEREOF” (Boston Biomedical, Inc., priority 2014, published 2019):
Read-outs that look alike come from different tables or passages of the source.

Assay: Test 4: concentration of the test compounds in plasma
Type: in vivo
Settings: mouse, po, 25 mg/kg, 25 mg/kg po
Experimental: Administration method: The test compound scaled to a given weight was suspended in 0.5% methylcellulose to prepare an administration solution. A mouse was weighed, and the administration solution was orally administered to the mouse depending on its weight.
Blood sampling method: EDAT-2K was added to a blood collection tube, into which the blood of the mouse was sampled. The sampled blood was centrifuged to give plasma.
Preparation of standard solution: The test compound scaled to 1 mg was dissolved in 10 mL of MeOH in a volumetric flask to prepare a 100 μg/mL standard solution.
Measure of the concentration in plasma: The 100 μg/mL standard solution was diluted with MeOH to prepare a sample for calibration curve which has the desired concentration. To 50 μL of the sample for calibration curve was added 50 μL of the blank plasma to prepare a sample for plasma calibration curve. To 50 μL of the plasma sample treated with the test compound was added 50 μL of MeOH to prepare a sample for analyzing plasma. To each 100 μL of the sample for plasma calibration curve and the sample for analyzing plasma was added 150 μL of MeOH containing an internal standard respectively. The internal standard used herein was bezafibrate, the concentration of which was 200 nM. Each 5 μL of the samples was analyzed with an LC-MS. The calibration curve was prepared based on the peak ratio of MS peak area of the test sample per that of the internal standard, and the concentration of the sample for plasma calibration curve. The concentration of the test compound in each sample was calculated based on the peak ratio of each sample, and the calibration curve.

[1] = animal 1, read-out: Concentration in plasma, animal 1
[2] = animal 2, read-out: Concentration in plasma, animal 2
[3] = animal 3, read-out: Concentration in plasma, animal 3
[4] = mean of 3, read-out: Concentration in plasma, mean

concentration at 2 hr [1]: 508 ng/mL
concentration at 2 hr [2]: 473 ng/mL
concentration at 2 hr [3]: 384 ng/mL
concentration at 2 hr [4]: 455 ng/mL
concentration at 6 hr [1]: 351 ng/mL
concentration at 6 hr [2]: 2800 ng/mL
concentration at 6 hr [3]: 334 ng/mL
concentration at 6 hr [4]: 1160 ng/mL
Compound: CN1CCN(C(=O)c2c(C(F)(F)F)oc3c2C(=O)c2ccccc2C3=O)CC1 [Example 8, 3-(4-Methylpiperazine-1-carbonyl)-2-(trifluoromethyl)naphtho[2,3-b]furan-4,9-dione]
